As a reminder, the IC50 is the concentration that inhibits the measured activity by half. Low values mean higher potency, high ones lower potency.

Counter-ions that a name gives are not always drawn.

This is an account of results in US20120064121A1, “PYRIDINE COMPOUNDS FOR INFLAMMATION AND IMMUNE-RELATED USES” (SYNTA PHARMACEUTICALS CORP., priority 2008, published 2012).

In the first assay the test system is IL-2 production. The assay is described as follows: Inhibition of IL-2 production in PHA-activated Jurkat cells (ELISA). Type of assay: cell-based. As to conditions: Homo sapiens, Jurkat, 20 h, PHA 2.5 μg/mL, IL-2 ELISA. The protocol:
Jurkat cells were placed in a 96 well plate (0.5 million cells per well in 1% FBS medium) then a test compound of this invention was added at different concentrations. After 10 minutes, the cells were activated with PHA (final concentration 2.5 μg/mL) and incubated for 20 hours at 37° C. under CO2. The final volume was 200 μL. Following incubation, the cells were centrifuged and the supernatants collected and stored at −70° C. prior to assaying for IL-2 production. A commercial ELISA kit (IL-2 Eli-pair, Diaclone Research, Besancon, France) was used to detect production of IL-2, from which dose response curves were obtained. The IC50 value was calculated as the concentration at which 50% of maximum IL-2 production after stimulation was inhibited versus a non-stimulation control.
A general note: ELISA stands for enzyme-linked immunosorbent assay.
`Cc1ccc(-c2ccno2)cc1-c1ccc(NCc2c(F)cccc2F)cn1` [Compound 3, N-(2,6-difluorobenzyl)-6-(5-(isoxazol-5-yl)-2-methylphenyl)pyridin-3-amine] returned an IC50 of 48 nM. Regarding `Fc1cccc(F)c1CNc1ccc(-c2cc(-c3nccs3)ccc2Cl)nc1` [Compound 4, 6-(2-chloro-5-(thiazol-2-yl)phenyl)-N-(2,6-difluorobenzyl)pyridin-3-amine], inhibition was half-maximal at 19 nM (IC50).

Take `Fc1cccc(F)c1CNc1ccc(-c2cc(-c3ncco3)ccc2Cl)cn1` [Compound 5, 5-(2-chloro-5-(oxazol-2-yl)phenyl)-N-(2,6-difluorobenzyl)pyridin-2-amine]: the IC50 stood at 17 nM. The compound `Cc1ccc(-c2cccnc2)cc1-c1ccc(NC(=O)c2c(F)cccc2F)nc1` [Compound 6, 2,6-difluoro-N-(5-(2-methyl-5-(pyridin-3-yl)phenyl)pyridin-2-yl)benzamide] showed an IC50 of 3 nM. Consider `Cc1ccc(-c2ncccn2)cc1-c1ccc(NC(=O)c2c(F)cccc2F)nc1` [Compound 7, 2,6-difluoro-N-(5-(2-methyl-5-(pyrimidin-2-yl)phenyl)pyridin-2-yl)benzamide], for which the IC50 is 12 nM. Regarding `O=C(Nc1ccc(-c2cc(-c3nccs3)ccc2Cl)cn1)c1ccncc1F` [Compound 8, N-(5-(2-chloro-5-(thiazol-2-yl)phenyl)pyridin-2-yl)-3-fluoroisonicotinamide], it took 11 nM to reach half-maximal inhibition (IC50). Compound `O=C(Nc1ccc(-c2cc(-c3nccs3)ccc2Cl)cn1)c1ccccc1F` [Compound 11, N-(5-(2-chloro-5-(thiazol-2-yl)phenyl)pyridin-2-yl)-2-fluorobenzamide] came in with a half-maximal inhibitory concentration (IC50) of 13 nM. Same read-out and setting: in the case of `O=C(Nc1ccc(-c2cc(-c3nccs3)ccc2Cl)cn1)c1c(F)cccc1Cl` [Compound 12, 2-chloro-N-(5-(2-chloro-5-(thiazol-2-yl)phenyl)pyridin-2-yl)-6-fluorobenzamide] it was 10 nM. Same read-out and setting: in the case of `O=C(Nc1ccc(-c2cc(-c3nccs3)ccc2Cl)cn1)c1c(F)cccc1C(F)(F)F` [Compound 13, N-(5-(2-chloro-5-(thiazol-2-yl)phenyl)pyridin-2-yl)-2-fluoro-6-(trifluoromethyl)benzamide] it was 66 nM; in that of `O=C(Nc1ccc(-c2cc(-c3nccs3)ccc2Cl)nc1)c1ccccc1C(F)(F)F` [Compound 14, N-(6-(2-chloro-5-(thiazol-2-yl)phenyl)pyridin-3-yl)-2-(trifluoromethyl)benzamide], 71 nM; in that of `Cc1cc[nH]c1C(=O)Nc1ccc(-c2cc(-c3nccs3)ccc2Cl)cn1` [Compound 15, N-(5-(2-chloro-5-(thiazol-2-yl)phenyl)pyridin-2-yl)-3-methyl-1H-pyrrole-2-carboxamide], 348 nM. Take `Cn1cncc1C(=O)Nc1ccc(-c2cc(-c3nccs3)ccc2Cl)cn1` [Compound 16, N-(5-(2-chloro-5-(thiazol-2-yl)phenyl)pyridin-2-yl)-1-methyl-1H-imidazole-5-carboxamide]: 91 nM corresponded to half-maximal inhibition (IC50). `Cc1ncsc1C(=O)Nc1ccc(-c2cc(-c3nccs3)ccc2Cl)cn1` [Compound 17, N-(5-(2-chloro-5-(thiazol-2-yl)phenyl)pyridin-2-yl)-4-methylthiazole-5-carboxamide] gave an IC50 of 81 nM. In turn, `O=C(Nc1ccc(-c2cc(-c3cccnc3)ccc2Cl)cn1)c1c(F)cccc1F` [Compound 18, N-(5-(2-chloro-5-(pyridin-3-yl)phenyl)pyridin-2-yl)-2,6-difluorobenzamide] had an IC50 of 6 nM.

The same assay, now with this note: PHA 2.5 μg/mL, 20 hours, IL-2 ELISA.
`Fc1cccc(F)c1CNc1ccc(-c2cc(-c3nccs3)ccc2Cl)cn1` [Compound 1, 5-(2-chloro-5-(thiazol-2-yl)phenyl)-N-(2,6-difluorobenzyl)pyridin-2-amine] gave an IC50 of 56 nM. The same measure, in the same setting: as for `Cc1ccc(-c2cccnc2)cc1-c1ccc(NC(=O)c2c(F)cccc2Cl)nc1` [Compound 9, 2-chloro-6-fluoro-N-(5-(2-methyl-5-(pyridin-3-yl)phenyl)pyridin-2-yl)benzamide], the figure is more than 1000 nM.

The same assay, now with this note: PHA 2.5 μg/mL, 20 hours, IL-2 ELISA, hydrochloride.
As for `Fc1cccc(F)c1CNc1ccc(-c2cc(-c3nccs3)ccc2Cl)cn1` [Compound 2, 5-(2-chloro-5-(thiazol-2-yl)phenyl)-N-(2,6-difluorobenzyl)pyridin-2-amine hydrochloride], the IC50 was determined as 21 nM. Consider `Cc1ccc(-c2cccnc2)cc1-c1ccc(NC(=O)c2c(F)cccc2Cl)nc1` [Compound 10, 2-chloro-6-fluoro-N-(5-(2-methyl-5-(pyridin-3-yl)phenyl)pyridin-2-yl)benzamide hydrochloride], for which the IC50 is 7 nM. Against the preceding compound, the IC50 is about 3-fold lower.
